We go through 2 molecules from patent publication US20230233513A1, “TAXIFOLIN FORMULATION COMPRISING THIAMINE” (Evanium Healthcare GmbH, priority 2020, published 2023).

A short description of series [1]: Screening of water-soluble polymers / alkylammonium cations: recrystallization of supersaturated taxifolin/β-CD complex solution. Format: physicochemical. The conditions noted are these: taxifolin:choline/carnitine cations ratio 1:0.85, 96 h. As to the method: In order to examine which water-soluble polymers are particularly suitable for improving the stability and dissolution capacity of flavonoid-cyclodextrin complexes, a screening was carried out. For this purpose, first, a supersaturated taxifolin/β-CD complex solution was prepared by adding an excess of equimolar taxifolin/β-CD complex and subsequent heating to 35° C. and filtering off.

Series [2] in a line: Stability examination taxifolin: color change of aqueous solutions. The format is physicochemical. As to conditions: stored open, protected from light, room temperature. As to the method:
In order to investigate the stability of the flavonoid taxifolin and the influence of thiamine and β-CD, experiments were also carried out in this regard. Since taxifolin forms red-brown oligomers upon breakdown, the detection is quite straightforward to carry out. Method: Three aqueous solutions were prepared in beakers containing I) 100 mg taxifolin in 150 ml distilled water II) 100 mg of Taxifolin+13 mg of thiamine HCl in 150 ml distilled water and III) 100 mg taxifolin+13 mg of thiamine HCl+373 mg of β-CD in distilled water. Samples were stored open and protected from light at room temperature and the color of the solution was checked every 24 h.

As for `C[N+](C)(C)C[C@H](O)CC(=O)[O-].O=C(O)C(O)C(O)C(=O)O` [L-Carnitine tartrate, L-carnitine tartrate], in series [1], the “Recrystallization after 96 h” value was “Distinct” and the “Remark (change versus reference solution)” value is recorded as “No change”.

For `O=C1c2c(O)cc(O)cc2O[C@H](c2ccc(O)c(O)c2)[C@H]1O` [Taxifolin reference, taxifolin], the “Time of color change” value in series [2] (aqueous solution) was found to be 48 h. Moreover, in series [2], the Color of solution entry was “Red-brown”.
